Values quoted from earlier work in US9456994B2, “Efficient process for the preparation of lycopene containing oleoresin and lycopene crystals for human consumption” (OMNIACTIVE HEALTH TECHNOLOGIES LIMITED, priority 2011, dated 2016).

What was measured:
[1] = organic solvents

- lycopene lost (heated at 100 degree C in the presence of carbon dioxide): 5%
- lycopene degraded (heated at 100 degree C in the presence of oxygen): More than 30%
SMILES: CC(C)=CCC/C(C)=C/C=C/C(C)=C/C=C/C(C)=C/C=C/C=C(C)/C=C/C=C(C)/C=C/C=C(\C)CCC=C(C)C [lycopene, Lycopene]
- solubility [1]: soluble in chloroform, hexane, benzene, carbon disulphide, acetone, petroleum ether
